Where two headings read alike, the source gives them in different places.
Legend:
Format in all cases: biochemical
PI3Kβ = biological target: T1, PI3Kβ (Homo sapiens, UniProt P42338); test: In vitro kinase inhibition assay for PI3K (ADP-Glo), PI3Kβ; conditions: for Fold Selectivity β/δ: ratio of IC50 PI3Kβ to IC50 PI3Kδ
T1 construct: purchased Merck Millipore
Description: (§1) Tested compounds were dissolved in 100% DMSO, and obtained solutions were serially diluted in 1× reaction buffer. The recombinant kinase solution was diluted in a reaction mixture comprising 5× reaction buffer, respective compound solution (1 mM sodium diacetate 4,5-bisphosphate phosphatidylinositol (PIP2) solution in 40 mM Tris buffer), and water. In a 96-wells plate, 5 μL of compound solutions and 15 μL of the kinase solution in the reaction mixture were added per well. To initiate the interaction of chemical compounds to be tested with the enzyme, the plate was incubated for 10 min at a suitable temperature in a plate thermostat with orbital shaking at 600 rpm. Negative control wells contained all the above reagents except tested compound and kinase, and positive control wells contained all the above reagents except tested compounds. […] Subsequently, the plate was incubated for 1 h at 25 or 30 °C (depending on the PI3K isoform tested) in a plate thermostat with orbital shaking of the plate contents at 600 rpm. The reaction conditions are combined in the table below (Table 6).
(§2) Detection of ADP formed in the enzymatic reaction was then performed using ADP-Glo Kinase Assay™ (Promega, Madison, WI, USA). To the wells of a 96-well plate, 25 μL of ADP-Glo Reagent™ was added, and the plate was incubated for 40 min at 25 °C in a plate thermostat with orbital shaking at 600 rpm. Then 50 μL of Kinase Detection Reagent were added to each well, and the plate was incubated for 40 min at 25 °C in a plate thermostat with orbital shaking at 600 rpm. Once the incubation was complete, the luminescence intensity was measured using a Victor Light luminometer (Perkin Elmer, Inc., Waltham, MA, USA). IC50 values were determined based on luminescence intensity measured in wells containing tested compounds at different concentrations in relation to control wells. […] Each compound was tested at least in quadruplicates (4 wells) on two 96-well plates utilizing at least 4 wells for each control.

PI3Kδ = biological target: T2, PI3Kδ (Homo sapiens, UniProt O00329); test: In vitro kinase inhibition assay for PI3K (ADP-Glo), PI3Kδ; conditions: recombinant kinase, mean of two independent experiments, read-out: IC50 PI3K δ
T2 construct: purchased Merck Millipore
T2 sequence (P27986 whole entry): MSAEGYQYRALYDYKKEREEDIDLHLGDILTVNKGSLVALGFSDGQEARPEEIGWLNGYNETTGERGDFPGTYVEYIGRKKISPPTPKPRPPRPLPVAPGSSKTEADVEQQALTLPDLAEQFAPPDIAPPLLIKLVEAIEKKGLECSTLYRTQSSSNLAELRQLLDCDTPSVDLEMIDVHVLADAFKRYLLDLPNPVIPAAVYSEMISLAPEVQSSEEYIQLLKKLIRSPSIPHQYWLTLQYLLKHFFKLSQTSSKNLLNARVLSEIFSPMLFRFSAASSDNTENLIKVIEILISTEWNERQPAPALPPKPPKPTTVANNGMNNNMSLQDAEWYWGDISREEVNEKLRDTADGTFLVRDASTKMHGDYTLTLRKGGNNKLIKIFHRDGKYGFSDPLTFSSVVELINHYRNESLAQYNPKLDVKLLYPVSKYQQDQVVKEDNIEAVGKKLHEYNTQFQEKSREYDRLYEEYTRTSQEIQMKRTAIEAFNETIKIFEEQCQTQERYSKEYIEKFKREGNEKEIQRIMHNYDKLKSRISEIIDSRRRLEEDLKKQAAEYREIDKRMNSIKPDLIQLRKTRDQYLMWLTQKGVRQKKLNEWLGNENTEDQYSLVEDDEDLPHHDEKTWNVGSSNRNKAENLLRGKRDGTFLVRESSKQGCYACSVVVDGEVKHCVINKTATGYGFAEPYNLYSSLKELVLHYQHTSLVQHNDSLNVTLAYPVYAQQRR
T2 sequence (O00329 whole entry): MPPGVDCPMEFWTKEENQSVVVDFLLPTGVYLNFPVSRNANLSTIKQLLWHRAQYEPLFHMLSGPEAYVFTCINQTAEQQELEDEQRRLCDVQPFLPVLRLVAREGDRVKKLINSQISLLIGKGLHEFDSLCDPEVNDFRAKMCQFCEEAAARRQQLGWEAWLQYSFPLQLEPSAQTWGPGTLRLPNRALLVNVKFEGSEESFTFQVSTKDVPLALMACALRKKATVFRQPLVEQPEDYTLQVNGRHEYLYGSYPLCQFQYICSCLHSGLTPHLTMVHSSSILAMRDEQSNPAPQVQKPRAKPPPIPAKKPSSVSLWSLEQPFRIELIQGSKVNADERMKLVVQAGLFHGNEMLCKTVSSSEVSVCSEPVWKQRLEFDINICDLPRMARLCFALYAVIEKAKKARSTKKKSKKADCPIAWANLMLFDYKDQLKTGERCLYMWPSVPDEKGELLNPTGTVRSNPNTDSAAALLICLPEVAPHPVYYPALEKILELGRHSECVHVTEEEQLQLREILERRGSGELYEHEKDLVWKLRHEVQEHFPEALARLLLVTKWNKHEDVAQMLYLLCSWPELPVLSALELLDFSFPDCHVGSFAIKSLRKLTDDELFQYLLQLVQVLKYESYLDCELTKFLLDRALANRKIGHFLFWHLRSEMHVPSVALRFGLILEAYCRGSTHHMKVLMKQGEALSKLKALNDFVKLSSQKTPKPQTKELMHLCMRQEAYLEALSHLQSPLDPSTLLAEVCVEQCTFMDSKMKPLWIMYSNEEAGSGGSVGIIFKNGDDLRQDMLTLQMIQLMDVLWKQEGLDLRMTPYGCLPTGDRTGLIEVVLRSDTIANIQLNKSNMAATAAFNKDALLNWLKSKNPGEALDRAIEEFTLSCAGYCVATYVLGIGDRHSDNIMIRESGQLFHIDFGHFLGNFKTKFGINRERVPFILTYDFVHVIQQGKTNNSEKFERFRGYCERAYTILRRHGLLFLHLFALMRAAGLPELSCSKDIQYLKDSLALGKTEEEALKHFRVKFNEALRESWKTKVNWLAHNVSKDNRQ
Description: as §1, §2

PI3Kα = biological target: T3, PI3Kα (Homo sapiens, UniProt P42336); test: In vitro kinase inhibition assay for PI3K (ADP-Glo), PI3Kα; conditions: for IC50: IC50 PI3K α, recombinant kinase, ADP-Glo, mean of two independent experiments; for Fold Selectivity α/δ: ratio of IC50 PI3Kα to IC50 PI3Kδ
T3 construct: purchased Carna Biosciences
T3 sequence (P42336 whole entry): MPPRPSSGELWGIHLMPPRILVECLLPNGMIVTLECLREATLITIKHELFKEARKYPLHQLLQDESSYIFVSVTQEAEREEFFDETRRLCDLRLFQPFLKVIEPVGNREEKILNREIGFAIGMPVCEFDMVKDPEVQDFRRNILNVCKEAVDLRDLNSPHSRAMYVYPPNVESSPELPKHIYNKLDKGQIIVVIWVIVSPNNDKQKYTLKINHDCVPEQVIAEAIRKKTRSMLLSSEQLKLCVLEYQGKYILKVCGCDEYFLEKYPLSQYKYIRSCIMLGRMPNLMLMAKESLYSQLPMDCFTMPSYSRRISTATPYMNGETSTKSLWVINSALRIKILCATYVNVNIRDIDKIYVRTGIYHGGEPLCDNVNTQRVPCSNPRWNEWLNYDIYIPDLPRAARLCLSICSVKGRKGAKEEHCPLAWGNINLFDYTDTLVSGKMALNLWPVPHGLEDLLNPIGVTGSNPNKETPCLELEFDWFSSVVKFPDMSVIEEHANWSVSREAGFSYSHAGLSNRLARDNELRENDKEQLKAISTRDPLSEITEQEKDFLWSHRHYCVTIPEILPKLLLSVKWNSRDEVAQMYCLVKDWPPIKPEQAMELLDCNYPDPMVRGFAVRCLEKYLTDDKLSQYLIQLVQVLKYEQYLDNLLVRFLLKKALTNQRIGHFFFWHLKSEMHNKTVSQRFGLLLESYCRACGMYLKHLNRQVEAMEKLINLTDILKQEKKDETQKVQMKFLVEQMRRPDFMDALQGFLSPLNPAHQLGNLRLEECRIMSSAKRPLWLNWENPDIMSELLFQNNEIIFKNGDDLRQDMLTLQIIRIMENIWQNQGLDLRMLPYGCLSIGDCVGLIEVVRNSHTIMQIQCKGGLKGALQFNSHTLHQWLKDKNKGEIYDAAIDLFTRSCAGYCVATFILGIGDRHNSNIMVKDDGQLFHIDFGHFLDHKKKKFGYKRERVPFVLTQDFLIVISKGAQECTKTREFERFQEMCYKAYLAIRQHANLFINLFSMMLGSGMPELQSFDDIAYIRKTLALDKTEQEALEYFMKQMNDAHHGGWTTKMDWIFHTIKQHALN
T3 sequence (P27986 whole entry partner): as the sequence (P27986 whole entry) above
Description: Tested compounds were dissolved in 100% DMSO, and obtained solutions were serially diluted in 1× reaction buffer. The recombinant kinase solution was diluted in a reaction mixture comprising 5× reaction buffer, respective compound solution (1 mM sodium diacetate 4,5-bisphosphate phosphatidylinositol (PIP2) solution in 40 mM Tris buffer), and water. In a 96-wells plate, 5 μL of compound solutions and 15 μL of the kinase solution in the reaction mixture were added per well. To initiate the interaction of chemical compounds to be tested with the enzyme, the plate was incubated for 10 min at a suitable temperature in a plate thermostat with orbital shaking at 600 rpm. Negative control wells contained all the above reagents except tested compound and kinase, and positive control wells contained all the above reagents except tested compounds. The enzymatic reaction was initiated by adding 5 μL of 150 μM ATP solution. Subsequently, the plate was incubated for 1 h at 25 or 30 °C (depending on the PI3K isoform tested) in a plate thermostat with orbital shaking of the plate contents at 600 rpm. The reaction conditions are combined in the table below (Table 6).
Detection of ADP formed in the enzymatic reaction was then performed using ADP-Glo Kinase Assay™ (Promega, Madison, WI, USA). To the wells of a 96-well plate, 25 μL of ADP-Glo Reagent™ was added, and the plate was incubated for 40 min at 25 °C in a plate thermostat with orbital shaking at 600 rpm. Then 50 μL of Kinase Detection Reagent were added to each well, and the plate was incubated for 40 min at 25 °C in a plate thermostat with orbital shaking at 600 rpm. Once the incubation was complete, the luminescence intensity was measured using a Victor Light luminometer (Perkin Elmer, Inc., Waltham, MA, USA). IC50 values were determined based on luminescence intensity measured in wells containing tested compounds at different concentrations in relation to control wells. These values were calculated with Graph Pad 5.03 software by fitting the curve using non-linear regression. Each compound was tested at least in quadruplicates (4 wells) on two 96-well plates utilizing at least 4 wells for each control. Averaged results of inhibition activity respective to specific isoforms of PI3K kinases for tested compounds are presented as IC50 values in Table 1, Table 2, Table 3 and Table 4.

PI3Kγ = biological target: T4, PI3Kγ (Homo sapiens, UniProt P48736); test: In vitro kinase inhibition assay for PI3K (ADP-Glo), PI3Kγ; conditions: for Fold Selectivity γ/δ: ratio of IC50 PI3Kγ to IC50 PI3Kδ
T4 construct: purchased Merck Millipore
T4 sequence (P48736 whole entry): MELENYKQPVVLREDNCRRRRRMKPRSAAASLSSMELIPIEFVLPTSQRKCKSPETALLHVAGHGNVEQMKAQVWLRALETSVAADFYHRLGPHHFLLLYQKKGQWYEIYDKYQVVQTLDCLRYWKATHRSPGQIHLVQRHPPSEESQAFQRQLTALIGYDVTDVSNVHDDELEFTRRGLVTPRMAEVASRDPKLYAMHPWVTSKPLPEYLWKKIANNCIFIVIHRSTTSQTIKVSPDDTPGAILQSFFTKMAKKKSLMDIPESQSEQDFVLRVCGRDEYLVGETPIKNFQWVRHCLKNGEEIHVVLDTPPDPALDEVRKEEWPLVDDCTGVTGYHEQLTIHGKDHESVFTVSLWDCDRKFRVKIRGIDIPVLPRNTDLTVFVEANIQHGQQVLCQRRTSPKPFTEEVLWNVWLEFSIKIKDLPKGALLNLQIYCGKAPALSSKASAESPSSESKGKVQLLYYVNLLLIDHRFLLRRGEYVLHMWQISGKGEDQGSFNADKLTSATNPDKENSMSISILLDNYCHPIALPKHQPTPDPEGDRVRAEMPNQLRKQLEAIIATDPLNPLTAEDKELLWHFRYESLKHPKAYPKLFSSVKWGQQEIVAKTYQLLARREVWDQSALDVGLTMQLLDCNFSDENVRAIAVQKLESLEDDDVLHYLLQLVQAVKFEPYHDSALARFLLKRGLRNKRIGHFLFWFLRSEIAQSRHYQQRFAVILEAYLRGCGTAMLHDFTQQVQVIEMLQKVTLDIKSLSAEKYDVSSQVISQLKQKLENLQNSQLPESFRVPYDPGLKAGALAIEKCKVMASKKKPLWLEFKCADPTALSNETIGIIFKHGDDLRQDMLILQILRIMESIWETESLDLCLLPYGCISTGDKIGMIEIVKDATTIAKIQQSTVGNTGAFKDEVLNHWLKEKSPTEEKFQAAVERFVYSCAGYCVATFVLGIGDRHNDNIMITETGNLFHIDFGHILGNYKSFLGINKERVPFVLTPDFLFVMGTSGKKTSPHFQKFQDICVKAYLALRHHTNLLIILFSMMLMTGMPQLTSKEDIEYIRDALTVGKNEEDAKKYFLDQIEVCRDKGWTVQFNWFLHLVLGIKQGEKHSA
Description: as §1, §2

[1] = recombinant kinase, ADP-Glo, mean of two independent experiments, read-out: IC50 PI3K β
[2] = recombinant kinase, ADP-Glo, mean of two independent experiments, read-out: IC50 PI3K γ

T1 sequence (P42338 whole entry): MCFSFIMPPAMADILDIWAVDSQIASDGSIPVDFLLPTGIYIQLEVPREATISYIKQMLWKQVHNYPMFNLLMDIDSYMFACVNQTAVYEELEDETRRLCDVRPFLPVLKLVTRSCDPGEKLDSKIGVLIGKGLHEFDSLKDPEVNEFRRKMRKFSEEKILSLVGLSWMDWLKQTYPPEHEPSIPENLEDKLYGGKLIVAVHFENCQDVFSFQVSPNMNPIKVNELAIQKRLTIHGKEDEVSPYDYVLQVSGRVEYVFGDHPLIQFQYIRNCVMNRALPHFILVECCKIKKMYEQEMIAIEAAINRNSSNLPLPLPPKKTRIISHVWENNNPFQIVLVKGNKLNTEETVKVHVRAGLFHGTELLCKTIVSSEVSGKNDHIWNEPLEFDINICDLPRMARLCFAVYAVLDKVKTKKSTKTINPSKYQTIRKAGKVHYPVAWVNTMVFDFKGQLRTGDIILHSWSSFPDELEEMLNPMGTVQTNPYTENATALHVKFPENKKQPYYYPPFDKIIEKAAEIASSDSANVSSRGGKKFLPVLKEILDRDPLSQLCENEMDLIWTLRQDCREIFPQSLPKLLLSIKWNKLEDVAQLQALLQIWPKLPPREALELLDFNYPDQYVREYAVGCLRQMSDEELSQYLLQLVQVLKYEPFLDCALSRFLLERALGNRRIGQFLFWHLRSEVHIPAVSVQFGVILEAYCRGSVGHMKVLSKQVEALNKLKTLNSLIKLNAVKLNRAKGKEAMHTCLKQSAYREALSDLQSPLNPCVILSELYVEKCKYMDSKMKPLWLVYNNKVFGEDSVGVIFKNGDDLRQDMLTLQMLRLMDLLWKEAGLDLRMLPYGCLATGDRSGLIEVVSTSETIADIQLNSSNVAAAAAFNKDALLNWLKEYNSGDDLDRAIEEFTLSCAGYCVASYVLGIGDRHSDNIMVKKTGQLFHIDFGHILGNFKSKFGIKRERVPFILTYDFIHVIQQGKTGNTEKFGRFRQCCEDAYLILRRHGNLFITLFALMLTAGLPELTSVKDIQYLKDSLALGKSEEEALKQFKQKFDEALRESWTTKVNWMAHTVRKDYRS
T1 sequence (P27986 whole entry, further chain): as the sequence (P27986 whole entry) above

CC(C)(C)N1CCN(Cc2cc3nc(-c4ccnc5[nH]ccc45)cc(N4CCOCC4)n3n2)CC1 [Compound 55, 2-((4-tert-butylpiperazin-1-yl)methyl)-5-(1H-pyrrolo [2,3-b]pyridin-4-yl)-7-(morpholin-4-yl)pyrazolo[1,5-a]pyrimidine]
Fold Selectivity β/δ (PI3Kβ): 711 | IC50 (PI3Kβ; [1]): 32 µM | IC50 (PI3Kδ): 0.045 µM | IC50 (PI3Kα): 2.96 µM | Fold Selectivity α/δ (PI3Kα): 66

c1cc(-c2cc(N3CCOCC3)n3nc(CN4CCN(C5CC5)CC4)cc3n2)c2cc[nH]c2c1 [Compound 39, 2-((4-cyclopropylpiperazin-1-yl)methyl)-5-(1H-indol-4-yl)-7-(morpholin-4-yl)pyrazolo[1,5-a]pyrimidine]
Fold Selectivity β/δ (PI3Kβ): 259 | IC50 (PI3Kβ; [1]): 15 µM | IC50 (PI3Kδ): 0.058 µM | IC50 (PI3Kα): 25.3 µM | Fold Selectivity α/δ (PI3Kα): 436

CC(C)(O)C1CCN(Cc2cc3nc(-c4cncc5[nH]ccc45)cc(N4CCOCC4)n3n2)CC1 [Compound 50, 2-((4-(2-hydroxypropan-2-yl)piperidin-1-yl)methyl)-5-(1H-pyrrolo [2,3-c]pyridin-4-yl)-7-(morpholin-4-yl)pyrazolo[1,5-a]pyrimidine]
Fold Selectivity β/δ (PI3Kβ): 188 | IC50 (PI3Kβ; [1]): 5.26 µM | IC50 (PI3Kδ): 0.028 µM | IC50 (PI3Kα): 3.65 µM | Fold Selectivity α/δ (PI3Kα): 130

CC(C)(O)C1CCN(Cc2cc3nc(-c4c(F)ccc5[nH]ccc45)cc(N4CCOCC4)n3n2)CC1 [Compound 49, 2-((4-(2-hydroxypropan-2-yl)piperidin-1-yl)methyl)-5-(5-fluoro-1H-indol-4-yl)-7-(morpholin-4-yl)pyrazolo[1,5-a]pyrimidine]
Fold Selectivity γ/δ (PI3Kγ): 1195 | IC50 (PI3Kγ; [2]): 47.8 µM | Fold Selectivity β/δ (PI3Kβ): 283 | IC50 (PI3Kβ; [1]): 11.3 µM | IC50 (PI3Kδ): 0.04 µM | IC50 (PI3Kα): 34.4 µM | Fold Selectivity α/δ (PI3Kα): 860

CN(C)C1CCN(Cc2cc3nc(-c4cccc5[nH]ccc45)cc(N4CCOCC4)n3n2)CC1 [Compound 24, 2-((4-(dimethylamino)piperidin-1-yl)methyl)-5-(1H-indol-4-yl)-7-(morpholin-4-yl)pyrazolo[1,5-a]pyrimidine]
Fold Selectivity γ/δ (PI3Kγ): 1332 | IC50 (PI3Kγ; [2]): 49.3 µM | Fold Selectivity β/δ (PI3Kβ): 389 | IC50 (PI3Kβ; [1]): 14.4 µM | IC50 (PI3Kδ): 0.037 µM | IC50 (PI3Kα): 6.38 µM | Fold Selectivity α/δ (PI3Kα): 172

CCN1CCN(Cc2cc3nc(-c4cccc5[nH]ccc45)cc(N4CCOCC4)n3n2)CC1 [Compound 34, 2-((4-ethylpiperazin-1-yl)methyl)-5-(1H-indol-4-yl)-7-(morpholin-4-yl)pyrazolo[1,5-a]pyrimidine]
Fold Selectivity γ/δ (PI3Kγ): >1395 | IC50 (PI3Kγ; [2]): > 60 µM | Fold Selectivity β/δ (PI3Kβ): 253 | IC50 (PI3Kβ; [1]): 10.9 µM | IC50 (PI3Kδ): 0.043 µM | IC50 (PI3Kα): 34.3 µM | Fold Selectivity α/δ (PI3Kα): 798

O=C(C1CC1)N1CCN(Cc2cc3nc(-c4cccc5[nH]ccc45)cc(N4CCOCC4)n3n2)CC1 [Compound 44, 2-((4-(cyclopropanecarbonyl)piperazin-1-yl)methyl)-5-(1H-indol-4-yl)-7-(morpholin-4-yl)pyrazolo[1,5-a]pyrimidine]
Fold Selectivity γ/δ (PI3Kγ): 38 | IC50 (PI3Kγ; [2]): 0.846 µM | Fold Selectivity β/δ (PI3Kβ): 332 | IC50 (PI3Kβ; [1]): 7.31 µM | IC50 (PI3Kδ): 0.022 µM | IC50 (PI3Kα): 1.27 µM | Fold Selectivity α/δ (PI3Kα): 58

CC(C)(C(N)=O)N1CCN(Cc2cc3nc(-c4cccc5[nH]ccc45)cc(N4CCOCC4)n3n2)CC1 [Compound 38, 2-(4-((5-(1H-indol-4-yl)-7-(morpholin-4-yl)pyrazolo[1,5-a]pyrimidin-2-yl)methyl)piperazin-1-yl)-2-methylpropionamide]
IC50 (PI3Kγ): 17.5 µM | Fold Selectivity γ/δ (PI3Kγ): 428 | Fold Selectivity β/δ (PI3Kβ): 146 | IC50 (PI3Kβ; [1]): 5.99 µM | IC50 (PI3Kδ): 0.041 µM | IC50 (PI3Kα): 17.7 µM | Fold Selectivity α/δ (PI3Kα): 433

CC(C)(C)N1CCN(Cc2cc3nc(-c4c(F)ccc5[nH]ccc45)cc(N4CCOCC4)n3n2)CC1 [Compound 53, 2-((4-tert-butylpiperazin-1-yl)methyl)-5-(5-fluoro-1H-indol-4-yl)-7-(morpholin-4-yl)pyrazolo[1,5-a]pyrimidine]
Fold Selectivity γ/δ (PI3Kγ): >5455 | IC50 (PI3Kγ; [2]): > 60 µM | IC50 (PI3Kβ): 19.5 µM | Fold Selectivity β/δ (PI3Kβ): 1768 | IC50 (PI3Kδ): 0.011 µM | IC50 (PI3Kα): 19.3 µM | Fold Selectivity α/δ (PI3Kα): 1754

CC(C)(O)C1CCN(Cc2cc3nc(-c4cccc5[nH]ccc45)cc(N4CCOCC4)n3n2)CC1 [Compound 36, 2-((4-(2-hydroxypropan-2-yl)piperidin-1-yl)methyl)-5-(1H-indol-4-yl)-7-(morpholin-4-yl)pyrazolo[1,5-a]pyrimidine]
IC50 (PI3Kγ): 15.9 µM | Fold Selectivity γ/δ (PI3Kγ): 1223 | Fold Selectivity β/δ (PI3Kβ): 332 | IC50 (PI3Kβ; [1]): 4.31 µM | IC50 (PI3Kδ): 0.013 µM | IC50 (PI3Kα): 15.8 µM | Fold Selectivity α/δ (PI3Kα): 1217

CC(C)(O)C1CCN(Cc2cc3nc(-c4ccnc5[nH]ccc45)cc(N4CCOCC4)n3n2)CC1 [Compound 51, 2-((4-(2-hydroxypropan-2-yl)piperidin-1-yl)methyl)-5-(1H-pyrrolo [2,3-b]pyridin-4-yl)-7-(morpholin-4-yl)pyrazolo[1,5-a]pyrimidine]
Fold Selectivity β/δ (PI3Kβ): 1165 | IC50 (PI3Kβ; [1]): 26.8 µM | IC50 (PI3Kδ): 0.023 µM | IC50 (PI3Kα): 9.75 µM | Fold Selectivity α/δ (PI3Kα): 424

CC(C)(C)C1CCN(Cc2cc3nc(-c4cccc5[nH]ccc45)cc(N4CCOCC4)n3n2)CC1 [Compound 41, 2-((4-tert-butylpiperidin-1-yl)methyl)-5-(1H-indol-4-yl)-7-(morpholin-4-yl)pyrazolo[1,5-a]pyrimidine]
Fold Selectivity γ/δ (PI3Kγ): 191 | IC50 (PI3Kγ; [2]): 9.73 µM | Fold Selectivity β/δ (PI3Kβ): 62 | IC50 (PI3Kβ; [1]): 3.17 µM | IC50 (PI3Kδ): 0.051 µM | IC50 (PI3Kα): 12.3 µM | Fold Selectivity α/δ (PI3Kα): 241
